Experimental data as given in patent US20250263370A1 (Tay Therapeutics Limited, priority 2022, published 2025).
Where “and” joins values, the source holds several entries; their conditions need not be identical. Identical values can stand only once.

Tested on: collagen-induced arthritis
Experiment: Collagen-induced arthritis (CIA) model in rats: body weight, paw volume, clinical scores, clinical observations; as to Average detailed clinical score, left hind limb: key of the grades not given here; as to Average detailed clinical score, right hind limb: key of the grades not given here; as to Detailed Clinical Scores, left forelimb: key of the grades not given here; as to Detailed Clinical Scores, left hind limb: key of the grades not given here; as to Detailed Clinical Scores, right forelimb: key of the grades not given here; as to Detailed Clinical Scores, right hind limb: key of the grades not given here; as to Detailed Clinical Scores, score: key of the grades not given here; as to Mean overall clinical score ± SD: key of the grades not given here; as to Overall clinical score: key of the grades not given here
Settings: for Mean animal paw volume ± SD: group mean; for Detailed Clinical Scores, left forelimb / Detailed Clinical Scores, left hind limb / Detailed Clinical Scores, right forelimb / Detailed Clinical Scores, right hind limb / Detailed Clinical Scores, score: individual animals ID 1-8; for Overall clinical score: individual animals #1-8
[1] = CIA rats, daily P.O. (group 4), day 21
[2] = CIA rats, daily P.O. for 21 days

Procedure: Prior to be randomly placed in treatment groups, animals were weighed, and paw volume was measured. Once randomly assigned to treatment groups, on Day 0, animals in groups 2-9 were immunized by subcutaneous injection at the base of the tail.
The immunization comprised 100 μL of the CFA+Collagen emulsion (prepared according to the method in Experimental Method A). Animals in group one received no immunization. Seven days after the first injection, animals in groups 2-9 received a booster immunization comprising 200 μL of the IFA+Collagen emulsion (prepared according to the method in Experimental Method A).
Starting on Day 0, animals in group 1 and 2 were administered daily doses of the vehicle per os (P.O.) for 21 days. […] The twice daily doses for animals in groups 4-9 were 8 hours apart (e.g., the first dose at 8:00 AM and the second dose at 4:00 PM).
Body weight of all animals was recorded daily for the 21-day period. Blind clinical scores on all four limbs were conducted for all animals in the study. Animals were assessed prior to receiving their first dose of the compound or control, and scores for each limb were combined to a total daily score for each animal. Clinical score assessments were performed on Day 0, 6, 12, 13, 14, 15, 18, 19, and 21 (for a total of 9 daily scores).
Paw volume was recorded for each animal on Day 0, 6, 12, 13, 14, 15, 18, 19, and 21 (for a total of 9 measurements). To measure paw volume, animals were gently held with one hand while the hind paw was placed into a plethysmometer with the other hand. Lipid displacement by the paw was recorded and used to represent paw volume.
All data measured and recorded was analyzed using SPSS 16.0 software. Groups were compared using one-way ANOVA and significance was set at p<0.05.

For CNC(=O)c1cc(C(=O)NC2CC2)cn(Cc2ccccc2)c1=O [GSK620], the “Average animal paw volume percent change” value (CIA rats, Day 0, left hind paw (L)) was 0.00%, the “Animal paw volume Day 0 L” value (CIA rats, Day 0, left paw, individual animals) was 1.27 mL (2×) and 1.32 mL (2×) and 1.37 mL (2×) and 1.34 mL and 1.35 mL and the “Average animal paw volume percent change” value (CIA rats, Day 0, right hind paw (R)) was 0.00%. The “Animal paw volume Day 0 R” value (CIA rats, Day 0, right paw, individual animals) was 1.27 mL and 1.31 mL and 1.28 mL and 1.37 mL (2×) and 1.33 mL (2×) and 1.34 mL, the “Average animal paw volume percent change” value (CIA rats, Day 6, left hind paw (L)) was 1.04% and the “Animal paw volume Day 6 L” value (CIA rats, Day 6, left paw, individual animals) was 1.27 mL and 1.34 mL (2×) and 1.37 mL and 1.36 mL and 1.38 mL and 1.32 mL and 1.35 mL. For the same compound, the “Average animal paw volume percent change” value (CIA rats, Day 6, right hind paw (R)) was 1.50%, the “Animal paw volume Day 6 R” value (CIA rats, Day 6, right paw, individual animals) was 1.27 mL and 1.35 mL and 1.38 mL and 1.37 mL and 1.39 mL and 1.33 mL (2×) and 1.34 mL and the “Average animal paw volume percent change” value (CIA rats, Day 12, left hind paw (L)) was 3.13%. For the same compound, the “Animal paw volume Day 12 L” value (CIA rats, Day 12, left paw, individual animals) was 1.33 mL (2×) and 1.41 mL and 1.37 mL and 1.42 mL and 1.36 mL and 1.35 mL and 1.38 mL, the “Average animal paw volume percent change” value (CIA rats, Day 12, right hind paw (R)) was 3.69% and the “Animal paw volume Day 12 R” value (CIA rats, Day 12, right paw, individual animals) was 1.31 mL and 1.35 mL and 1.42 mL and 1.39 mL (2×) and 1.38 mL (2×) and 1.37 mL. For the same compound, the “Average animal paw volume percent change” value (CIA rats, Day 13, left hind paw (L)) was 4.09%, the “Animal paw volume Day 13 L” value (CIA rats, Day 13, left paw, individual animals) was 1.34 mL (2×) and 1.43 mL (2×) and 1.36 mL and 1.37 mL and 1.38 mL and 1.40 mL and the “Average animal paw volume percent change” value (CIA rats, Day 13, right hind paw (R)) was 6.88%. For the same compound, the “Animal paw volume Day 13 R” value (CIA rats, Day 13, right paw, individual animals) was 1.40 mL and 1.35 mL and 1.42 mL (2×) and 1.57 mL and 1.37 mL and 1.41 mL and 1.39 mL, the “Average animal paw volume percent change” value (CIA rats, Day 14, left hind paw (L)) was 17.19% and the “Animal paw volume Day 14 L” value (CIA rats, Day 14, left paw, individual animals) was 1.55 mL and 1.78 mL and 1.44 mL and 1.36 mL and 1.43 mL and 1.40 mL and 1.73 mL (2×). The “Average animal paw volume percent change” value (CIA rats, Day 14, right hind paw (R)) was 26.62%, the “Animal paw volume Day 14 R” value (CIA rats, Day 14, right paw, individual animals) was 1.74 mL and 1.49 mL and 1.44 mL and 2.11 mL and 1.43 mL and 1.38 mL and 1.99 mL and 1.83 mL and the “Average animal paw volume percent change” value (CIA rats, Day 15, left hind paw (L)) was 31.82%. For the same compound, the “Animal paw volume Day 15 L” value (CIA rats, Day 15, left paw, individual animals) was 2.04 mL and 2.03 mL and 1.39 mL and 1.49 mL and 1.52 mL and 1.60 mL and 2.14 mL and 1.75 mL, the “Average animal paw volume percent change” value (CIA rats, Day 15, right hind paw (R)) was 40.45% and the “Animal paw volume Day 15 R” value (CIA rats, Day 15, right paw, individual animals) was 2.05 mL and 2.08 mL and 1.38 mL and 2.42 mL and 1.47 mL and 1.56 mL and 2.13 mL and 1.79 mL. The “Average animal paw volume percent change” value (CIA rats, Day 18, left hind paw (L)) was 87.52%, the “Animal paw volume Day 18 L” value (CIA rats, Day 18, left paw, individual animals) was 2.72 mL and 2.54 mL and 2.39 mL and 2.87 mL and 2.29 mL and 2.05 mL and 2.66 mL and 2.34 mL and the “Average animal paw volume percent change” value (CIA rats, Day 18, right hind paw (R)) was 78.42%. For the same compound, the “Animal paw volume Day 18 R” value (CIA rats, Day 18, right paw, individual animals) was 2.62 mL and 2.45 mL and 2.41 mL and 3.15 mL and 1.46 mL and 2.04 mL and 2.38 mL and 2.34 mL, the “Average animal paw volume percent change” value (CIA rats, Day 19, left hind paw (L)) was 92.23% and the “Animal paw volume Day 19 L” value (CIA rats, Day 19, left paw, individual animals) was 2.71 mL and 2.54 mL and 2.32 mL (2×) and 3.06 mL and 2.61 mL and 2.19 mL and 2.63 mL. The “Average animal paw volume percent change” value (CIA rats, Day 19, right hind paw (R)) was 78.62%, the “Animal paw volume Day 19 R” value (CIA rats, Day 19, right paw, individual animals) was 2.59 mL and 2.46 mL and 2.33 mL (2×) and 3.15 mL and 1.46 mL and 2.20 mL and 2.36 mL and the “Average animal paw volume percent change” value (CIA rats, Day 21, left hind paw (L)) was 91.34%. The “Animal paw volume Day 21 L” value (CIA rats, Day 21, left paw, individual animals) was 2.71 mL and 2.51 mL and 2.34 mL and 3.04 mL and 2.62 mL and 2.21 mL and 2.54 mL and 2.32 mL, the “Average animal paw volume percent change” value (CIA rats, Day 21, right hind paw (R)) was 78.28% and the “Animal paw volume Day 21 R” value (CIA rats, Day 21, right paw, individual animals) was 2.63 mL and 2.44 mL and 2.21 mL and 3.08 mL and 1.61 mL and 2.18 mL and 2.37 mL and 2.33 mL. For the same compound, the “animals with a clinical score of at least 2 in one or more hind limbs” value (CIA rats, daily P.O. (group 4), day 14) was 5/8, the “animals with clinical scores of 3 or greater in one or more hind limbs” value (CIA rats, daily P.O. (group 4), day 18) was “all animals” and the “animals with a clinical score of 4 in each hind limb” value [1] was 3/8. The “animals with a score of 4 in at least one hind limb” value [1] was 5/8, the “day on which clinical scores started to increase” value [2] was 14 days and the “effect on hind paw volume” value [2] was “less effective at preventing an increase in paw volume over the course of the study”. The “average overall clinical score at plateau” value (CIA rats, daily P.O. for 21 days, around day 18) was 8, the “animals showing signs of disease” value (CIA rats, daily P.O., day 12) was “No animals” and the animals exhibiting disease (CIA rats, daily P.O., day 13) was 1/8. For the same compound, the animals exhibiting disease (CIA rats, daily P.O., day 14) was 5/8, the animals exhibiting disease (CIA rats, daily P.O., day 15) was 7/8 and the animals exhibiting disease (CIA rats, daily P.O., day 18) was “all animals”. For the same compound, the “Mean animal paw volume ± SD” value (Day 0, L paw) was 1.32 mL, the “Animal paw volume percent change” value (Day 0, L paw, individual animals) was 0.00% and the “Mean animal paw volume ± SD” value (Day 0, R paw) was 1.32 mL. The “Animal paw volume percent change” value (Day 0, R paw, individual animals) was 0.00%, the “Average detailed clinical score, left forelimb” value (Day 0, CIA rats) was 0.00 and the “Average detailed clinical score, left hind limb” value (Day 0, CIA rats) was 0.00. For the same compound, the “Average detailed clinical score, right forelimb” value (Day 0, CIA rats) was 0.00, the “Average detailed clinical score, right hind limb” value (Day 0, CIA rats) was 0.00 and the “Average detailed clinical score, score” value (Day 0, CIA rats) was 0.00. For the same compound, the “Mean overall clinical score ± SD” value (Day 0, CIA rats) was 0 ± 0, the “Detailed Clinical Scores, left forelimb” value (Day 0, CIA rats) was 0 and the “Detailed Clinical Scores, left hind limb” value (Day 0, CIA rats) was 0. The “Detailed Clinical Scores, right forelimb” value (Day 0, CIA rats) was 0, the “Detailed Clinical Scores, right hind limb” value (Day 0, CIA rats) was 0 and the “Detailed Clinical Scores, score” value (Day 0, CIA rats) was 0. The Overall clinical score (Day 0, CIA rats) was 0, the “Mean animal paw volume ± SD” value (Day 6, L paw) was 1.34 mL and the “Animal paw volume percent change” value (Day 6, L paw, individual animals) was −0.39% and 1.52% and 7.91% and −0.73% and 0.36% and 0.00% (2×) and −0.37%. For the same compound, the “Mean animal paw volume ± SD” value (Day 6, R paw) was 1.34 mL, the “Animal paw volume percent change” value (Day 6, R paw, individual animals) was −0.39% and 3.07% and 7.84% and 0.00% (4×) and 1.47% and the “Average detailed clinical score, left forelimb” value (Day 6, CIA rats) was 0.00. The “Average detailed clinical score, left hind limb” value (Day 6, CIA rats) was 0.00, the “Average detailed clinical score, right forelimb” value (Day 6, CIA rats) was 0.00 and the “Average detailed clinical score, right hind limb” value (Day 6, CIA rats) was 0.00. The “Average detailed clinical score, score” value (Day 6, CIA rats) was 0.00, the “Mean overall clinical score ± SD” value (Day 6, CIA rats) was 0 ± 0 and the “Detailed Clinical Scores, left forelimb” value (Day 6, CIA rats) was 0. For the same compound, the “Detailed Clinical Scores, left hind limb” value (Day 6, CIA rats) was 0, the “Detailed Clinical Scores, right forelimb” value (Day 6, CIA rats) was 0 and the “Detailed Clinical Scores, right hind limb” value (Day 6, CIA rats) was 0. For the same compound, the “Detailed Clinical Scores, score” value (Day 6, CIA rats) was 0, the Overall clinical score (Day 6, CIA rats) was 0 and the “Mean animal paw volume ± SD” value (Day 12, L paw) was 1.36 mL. The “Animal paw volume percent change” value (Day 12, L paw, individual animals) was 4.33% and 0.76% and 11.07% and 0.00% and 3.28% and 1.50% and 2.28% and 1.85%, the “Mean animal paw volume ± SD” value (Day 12, R paw) was 1.37 mL and the “Animal paw volume percent change” value (Day 12, R paw, individual animals) was 2.76% and 3.07% and 10.98% and 1.47% (2×) and 3.77% (2×) and 2.25%. For the same compound, the “Average detailed clinical score, left forelimb” value (Day 12, CIA rats) was 0.00, the “Average detailed clinical score, left hind limb” value (Day 12, CIA rats) was 0.00 and the “Average detailed clinical score, right forelimb” value (Day 12, CIA rats) was 0.00. For the same compound, the “Average detailed clinical score, right hind limb” value (Day 12, CIA rats) was 0.00, the “Average detailed clinical score, score” value (Day 12, CIA rats) was 0.00 and the “Mean overall clinical score ± SD” value (Day 12, CIA rats) was 0 ± 0. For the same compound, the “Detailed Clinical Scores, left forelimb” value (Day 12, CIA rats) was 0, the “Detailed Clinical Scores, left hind limb” value (Day 12, CIA rats) was 0 and the “Detailed Clinical Scores, right forelimb” value (Day 12, CIA rats) was 0. For the same compound, the “Detailed Clinical Scores, right hind limb” value (Day 12, CIA rats) was 0, the “Detailed Clinical Scores, score” value (Day 12, CIA rats) was 0 and the Overall clinical score (Day 12, CIA rats) was 0.
